Measured values: patent US9005636B2, “Pharmaceutical composition comprising metformin and rosuvastatin” (BCWorld Pharm Co., Ltd., priority 2009, dated 2015)

Columns and labels:
Assay type in all cases: cell-based, rat
L6 muscle cells [1] = experiment: Cell morphology (confluence) of L6 muscle cells by microscope; conditions: 48 hours
Method: (§1) Rat myoblast cell line L6 used herein was obtained from Korean Cell Line Bank. Cells were cultured until the number of cells reached 1×10^6 in T-75 flask (BD Biosciences) using DMEM (Dulbecco's Modified Eagle medium) supplemented with 4.5 g/L of D-glucose, L-glutamine, 0.11 g/L of sodium pyruvate and 10% FBS (Fetal bovine serum, Gibco; Invitrogen Corp., CA, USA). To differentiate cells, the medium with 2% HS (Horse serum, Gibco; Invitrogen Corp., CA, USA) was inoculated and the cells were incubated at 37° C. in 5% CO2 incubator (Forma scientific, Germany). The medium was replaced every 2 days and subculture was conducted every 3 to 4 days. In addition, the myoblast cells, used in this experiment, were differentiated up to 0.3×10^6 in 6 well plate (BD biosciences) before they were used. After the washing step with PBS (Gibco; Invitrogen Corp., CA, USA), the cells were used for ELISA, MTT and PCR analysis.
To compare the morphology of L6 muscle cells on the concentration of metformin, 0.5×10^5 muscle cells were seeded onto each well in 6 well plate (Falcon) and incubated at 37° C. in 5% CO2 incubator for 24 hours. 20 μM of rosuvastatin was treated and 0, 1, 10, 20, and 100 μM of metformin was treated, respectively. After 48 hours, all of them were observed using a microscope (IS-70, Olympus),

Atrogin-1 mRNA = experiment: RT-PCR of Atrogin-1 mRNA in L6 muscle cells; conditions: 20 μM of rosuvastatin
Method: as §1
To measure the mRNA level of Atrogen-1 in muscle cells depending on concentration of metformin, the cells were homogenized in 500 μl of Trizol (Invitrogen) and 3 μg of total RNA was collected using a cell scraper. […]

L6 muscle cells [2] = experiment: MTT assay, viability of L6 muscle cells; conditions: 20 μM of rosuvastatin only, 48 hours
Method: MTT assay was carried out to determine the viability of L6 muscle cells. 1×10^4 cells were seeded onto each well in 96 well plate and incubated at 37° C. in 5% CO2 incubator for 24 hours.
20 μM of rosuvastatin was treated and 0, 1, 10, 20 and 100 μM of metformin was treated, respectively. […] Lastly, the optical density of formazan was measured at 570 nm using an ELISA Reader.

Atrogin-1 = experiment: ELISA of Atrogin-1 protein expression; conditions: as the concentration of rosuvastatin was increased
Method: as §1, with “analysis. […] Non-bound material was removed after washing four times with phosphate-buffered saline containing 0.2% tween 20 (PBS-T). The plate was washed 4 times with PBS buffer containing 0.2% Tween 20; and 200 μl of blocking solution (GenDEPOT) containing 1% BSA (Bovine Serum Albumin) with PBS was seeded onto each well and incubated for 2 hours at 4° C. […] Lastly, the absorbance was measured at 450 nm using an ELISA reader.” for “analysis.”

PGC-1 α = experiment: ELISA of PGC-1 α protein expression

Compound	confluence of L6 cells compared to the group without treatment (L6 muscle cells [1]; 20 μM of rosuvastatin)	mRNA expression of Atrogin-1 compared to negative control (Atrogin-1 mRNA)	viability of the cells (MTT) (L6 muscle cells [2])	protein expression of Atrogin-1 (Atrogin-1)	confluence of L6 cells (L6 muscle cells [1]; 20 μM of rosuvastatin plus 1, 10, 20, 100 μM of metformin)	protein level of PGC-1 α compared to negative control (PGC-1 α; 0.1 μM of metformin)	protein level of PGC-1 α (PGC-1 α; more than 1 μM of metformin)
CC(C)c1nc(N(C)S(C)(=O)=O)nc(-c2ccc(F)cc2)c1/C=C/[C@@H](O)C[C@@H](O)CC(=O)O [rosuvastatin]	decreased significantly	increased	significant decrease	increased	–	–	–
CN(C)C(=N)N=C(N)N [metformin]	–	–	–	–	increased as the concentration of metformin increased	did not show a significant difference	increase
